Measured values from patent US9839642B2, “Beta-tetrazolyl-propionic acids as metallo-beta-lactamase inhibitors” (priority 2014, dated 2017).

Legend:
[1] = system: Serratia marcescens expressing IMP-1 (CL5741); assay: Antibiotic potentiation activity: synergistic concentration (MITC95) with imipenem, growth by OD600; type: cell-based; settings: 95% inhibition of bacterial growth, strain CL5741
Method in brief: (§1)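 Strains grown overnight at 35° C, resuspended in saline, diluted 1:100 into 1.1×CAMHB; imipenem at 1 μg/ml or 4 μg/ml with test compound 200 μM to 0.195 μM. Incubated 22 hours to 24 hours at 35° C, OD600 read; MITC95 is lowest compound concentration inhibiting 95% of growth.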

[2] = system: Escherichia coli expressing NDM-1 (CLB30016); assay: as above; type: cell-based; settings: 95% inhibition of bacterial growth, strain CLB30016
Method in brief: as §1

[3] = system: Klebsiella pneumoniae expressing VIM-1 (IHMA599644); assay: as above; type: cell-based; settings: 95% inhibition of bacterial growth, strain IHMA599644
Method in brief: as §1

[4] = target: IMP-1 (Serratia marcescens, UniProt P52699); assay: Enzyme activity: determination of IC50, fluorescence assay with CCF2-FA substrate; type: biochemical; settings: enzyme 2 pM, CCF2-FA 1.25 μM, 2 hours at 25° C.; read-out: IMP1 IC50
Method in brief: (§2)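 Enzyme (1 pM NDM-1, 2 pM IMP-1, 30 pM VIM-1) incubated with inhibitor (20 to 0.00063 μM) and 1.25 μM CCF2-FA in 100 mM KH2PO4 pH 7, 0.005% Tween-20, 10 μM ZnSO4, 2 h at 25 °C. Fluorescence read at 460 nm (ex 405 nm); IC50 by 4-parameter fit.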

[5] = target: NDM-1 (Klebsiella pneumoniae, UniProt C7C422); assay: as above; type: biochemical; settings: enzyme 1 pM, CCF2-FA 1.25 μM, 2 hours at 25° C.; read-out: NDM1 IC50
Method in brief: as §2

[6] = target: VIM-1 (Pseudomonas aeruginosa, UniProt A0A0F7KYQ8); assay: as above; type: biochemical; settings: enzyme 30 pM, CCF2-FA 1.25 μM, 2 hours at 25° C.; read-out: VIM1 IC50
Method in brief: as §2

Chain of IMP-1 (P52699 19-246, looked up, species assumed): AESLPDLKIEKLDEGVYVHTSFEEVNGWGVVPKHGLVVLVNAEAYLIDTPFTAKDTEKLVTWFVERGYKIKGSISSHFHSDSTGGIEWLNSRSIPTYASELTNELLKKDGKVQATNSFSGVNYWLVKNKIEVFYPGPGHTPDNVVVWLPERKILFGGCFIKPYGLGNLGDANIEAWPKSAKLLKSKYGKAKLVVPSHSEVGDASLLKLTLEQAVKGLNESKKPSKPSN
Chain of NDM-1 (C7C422 29-270, looked up, species assumed): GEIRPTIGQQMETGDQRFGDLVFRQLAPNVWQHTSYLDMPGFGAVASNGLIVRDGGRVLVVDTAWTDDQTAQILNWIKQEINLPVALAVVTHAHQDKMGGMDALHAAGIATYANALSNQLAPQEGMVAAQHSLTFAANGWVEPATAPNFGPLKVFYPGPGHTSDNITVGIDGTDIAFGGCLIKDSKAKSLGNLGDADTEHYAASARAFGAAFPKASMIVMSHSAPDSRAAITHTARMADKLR

Row | SMILES | IMP1 SM5741 MITC95 [1] | NDM1 EC30016 MITC95 [2] | VIM1 KP599644 MITC95 [3] | IC50 [4] | IC50 [5] | IC50 [6]
1 | CC(C)[C@H](C(=O)O)[C@H](Cc1cnc(N)nc1)c1nnn[nH]1 [Example 128, (2S,3S)-4-(2-aminopyrimidin-5-yl)-2-isopropyl-3-(1H-tetrazol-5-yl)butanoic acid] | >200 µM | 9.4 µM | 50 µM | 16000 nM | 150 nM | 51 nM
2 | CCC[C@H](C(=O)O)[C@H](Cc1ccc(NCCO)nc1)c1nnn[nH]1 [Example 129, (S)-2-((S)-2-(6-((2-hydroxyethyl)amino)pyridin-3-yl)-1-(1H-tetrazol-5-yl)ethyl)pentanoic acid] | 9.4 µM | 0.39 µM | 9.4 µM | 830 nM | 77 nM | 5.6 nM
3 | CCC[C@H](C(=O)O)[C@H](Cc1ccc(OCCN)nc1)c1nnn[nH]1 [Example 130, (S)-2-((S)-2-(6-(2-aminoethoxy)pyridin-3-yl)-1-(1H-tetrazol-5-yl)ethyl)pentanoic acid] | 50 µM | 4.7 µM | 18.8 µM | 8400 nM | 900 nM | 8.3 nM
4 | CCC[C@H](C(=O)O)[C@H](Cc1ccc(Oc2ccc(CN)cc2)nc1)c1nnn[nH]1 [Example 131, (S)-2-((S)-2-(6-(4-(aminomethyl)phenoxy)pyridin-3-yl)-1-(1H-tetrazol-5-yl)ethyl)pentanoic acid] | 6.2 µM | 0.78 µM | 9.4 µM | 200 nM | 12 nM | 1.9 nM
5 | CCC[C@H](C(=O)O)[C@H](Cc1ccc(NCc2ccc(O)cc2)nc1)c1nnn[nH]1 [Example 132, (S)-2-((S)-2-(6-((4-hydroxybenzyl)amino)pyridin-3-yl)-1-(1H-tetrazol-5-yl)ethyl)pentanoic acid] | 38 µM | 9.4 µM | 25 µM | 1500 nM | 160 nM | 31 nM
6 | CC(C)C[C@H](C(=O)O)[C@H](Cc1ccc2cc(NCCO)cnc2c1)c1nnn[nH]1 [Example 133, (S)-2-((S)-2-(3-((2-hydroxyethyl)amino)quinolin-7-yl)-1-(1H-tetrazol-5-yl)ethyl)-4-methylpentanoic acid] | 6.2 µM | 25 µM | 75 µM | 79 nM | 12 nM | 1.6 nM
7 | CC(C)C[C@H](C(=O)O)[C@H](Cc1ccc(NCCO)nc1)c1nnn[nH]1 [Example 134, (S)-2-((S)-2-(6-((2-hydroxyethyl)amino)pyridin-3-yl)-1-(1H-tetrazol-5-yl)ethyl)-4-methylpentanoic acid] | 4.7 µM | 0.78 µM | 18.8 µM | 230 nM | 88 nM | 6.6 nM
8 | CC(C)C[C@H](C(=O)O)[C@H](Cc1ccc(OCCN)nc1)c1nnn[nH]1 [Example 135, (S)-2-((S)-2-(6-(2-aminoethoxy)pyridin-3-yl)-1-(1H-tetrazol-5-yl)ethyl)-4-methylpentanoic acid] | 25 µM | 6.2 µM | 25 µM | 1600 nM | 490 nM | 6.1 nM
9 | CCC[C@H](C(=O)O)[C@H](Cc1ccc(NCCO)cn1)c1nnn[nH]1 [Example 136, (S)-2-((S)-2-(5-((2-hydroxyethyl)amino)pyridin-2-yl)-1-(1H-tetrazol-5-yl)ethyl)pentanoic acid] | 100 µM | 1.2 µM | 18.8 µM | 6800 nM | 340 nM | 150 nM
10 | CC(C)C[C@H](C(=O)O)[C@H](Cc1cnc(NCCO)s1)c1nnn[nH]1 [Example 137, (S)-2-((S)-2-(2-((2-hydroxyethyl)amino)thiazol-5-yl)-1-(1H-tetrazol-5-yl)ethyl)-4-methylpentanoic acid] | 12.5 µM | 6.2 µM | 37 µM | 300 nM | 110 nM | 3.5 nM
11 | CC(C)[C@H](C(=O)O)[C@H](Cc1cccc(NCCO)n1)c1nnn[nH]1 [Example 138, (2S,3S)-4-(6-((2-hydroxyethyl)amino)pyridin-2-yl)-2-isopropyl-3-(1H-tetrazol-5-yl)butanoic acid] | >200 µM | 3.1 µM | 75 µM | > 20000 nM | 490 nM | 670 nM
12 | CC(C)[C@H](C(=O)O)[C@H](Cc1ccc(NCCO)cn1)c1nnn[nH]1 [Example 139, (2S,3S)-4-(5-((2-hydroxyethyl)amino)pyridin-2-yl)-2-isopropyl-3-(1H-tetrazol-5-yl)butanoic acid] | 38 µM | 0.39 µM | 12.5 µM | 1900 nM | 56 nM | 34 nM
13 | CC(C)[C@H](C(=O)O)[C@H](Cc1ccc(NCCN)nc1)c1nnn[nH]1 [Example 140, (2S,3S)-4-(6-((2-aminoethyl)amino)pyridin-3-yl)-2-isopropyl-3-(1H-tetrazol-5-yl)butanoic acid] | 75 µM | 1.6 µM | 12.5 µM | > 20000 nM | 320 nM | 8.7 nM
14 | CC(C)[C@H](C(=O)O)[C@H](Cc1ccc(NC(CO)CO)nc1)c1nnn[nH]1 [Example 141, (2S,3S)-4-(6-((1,3-dihydroxypropan-2-yl)amino)pyridin-3-yl)-2-isopropyl-3-(1H-tetrazol-5-yl)butanoic acid] | >200 µM | 12.5 µM | 150 µM | > 20000 nM | 3600 nM | 800 nM
15 | CC(C)[C@H](C(=O)O)[C@H](Cc1ccc(OCC(N)CO)nc1)c1nnn[nH]1 (stereo partly drawn) [Example 142, (2S,3S)-4-(6-(2-amino-3-hydroxypropoxy)pyridin-3-yl)-2-isopropyl-3-(1H-tetrazol-5-yl)butanoic acid] | 50 µM | 3.1 µM | 25 µM | 5000 nM | 340 nM | 130 nM
16 | CCC[C@H](C(=O)O)[C@H](Cc1ccc(NCc2cc(OC)cc(OC)c2)nc1)c1nnn[nH]1 [Example 144, (S)-2-((S)-2-(6-((3,5-dimethoxybenzyl)amino)pyridin-3-yl)-1-(1H-tetrazol-5-yl)ethyl)pentanoic acid] | 62 µM | 7.8 µM | 200 µM | 370 nM | 16 nM | 15 nM
17 | CC(C)C[C@H](C(=O)O)[C@H](Cc1ccc(N2CCNCC2)c(F)c1)c1nn[nH]n1 [Example 146, (S)-2-((S)-2-(3-fluoro-4-(piperazin-1-yl)phenyl)-1-(2H-tetrazol-5-yl)ethyl)-4-methylpentanoic acid] | 5.5 µM | 6.2 µM | 15.6 µM | 100 nM | 36 nM | 1.6 nM
18 | CCC[C@H](C(=O)O)[C@H](Cc1ccc2ccc(N)nc2c1)c1nnn[nH]1 [Example 147, (S)-2-((S)-2-(2-aminoquinolin-7-yl)-1-(1H-tetrazol-5-yl)ethyl)pentanoic acid] | 100 µM | 3.1 µM | 6.2 µM | 4500 nM | 110 nM | 0.85 nM
19 | CCC[C@H](C(=O)O)[C@H](Cc1ccc2ncc(N)cc2c1)c1nnn[nH]1 [Example 148, 3-amino-6-((2S,3S)-3-carboxy-2-(1H-tetrazol-5-yl)hexyl)quinolin-1-ium] | 12.5 µM | 25 µM | 25 µM | 400 nM | 25 nM | 0.94 nM
20 | CCC[C@H](C(=O)O)[C@H](Cc1ccc(NCCS(N)(=O)=O)cn1)c1nnn[nH]1 [Example 149, 2-((2S,3S)-3-carboxy-2-(1H-tetrazol-5-yl)hexyl)-5-((2-sulfamoylethyl)amino)pyridin-1-ium] | 38 µM | 0.39 µM | 18.8 µM | 1600 nM | 170 nM | 98 nM
21 | CCC[C@H](C(=O)O)[C@H](Cc1csc(N)n1)c1nnn[nH]1 [Example 150, 4-((2S,3S)-3-carboxy-2-(1H-tetrazol-5-yl)hexyl)thiazol-2-aminium] | >200 µM | 1.6 µM | 25 µM | > 20000 nM | 480 nM | 300 nM
